Source: patent publication US5576419A, “Mild solid-phase synthesis of aligned branched triple-helical peptides” (Regents of the University of Minnesota, priority 1995, dated 1996)
pEC50: −log10 of the molar value.

Columns and labels:
[1] = test system: K1735M4 tumor cell; test: Melanoma cell spreading on peptide-coated plates; type: cell-based, mouse; conditions: for cell areas averaged (cell spreading): [THP-2]=0.9 μM, [SSP]=2.1 μM, [GPP*]=1.4 μM
Procedure: (§1) K1735M4 tumor cell adhesion and spreading assays were as described previously [M. K. Chelberg et al., J. Cell Biol. 111, 261 (1990)] with minor alterations. Peptides were dissolved in PBS and adsorbed directly onto 96-well polystyrene Immulon 1 plates (Dynatech Laboratories Inc., Chantlily, Va.) overnight at 37° C. Nonspecific binding sites were blocked with 5 mg/mL bovine serum albumin in adhesion media [Dulbecco's modified Eagle's medium containing 20 mM 4-(2-hydroxyethyl)-1-piperazineethanesulfonic acid] for 2 h at 37° C. Tumor cells were released from tissue culture flasks with 37° C. PBS containing 10 mM EDTA and washed several times with adhesion media. Cells were labeled overnight with 1 μCi/mL [^3 H]thymidine (New England Nuclear, Boston, Mass.) for adhesion assays. Cells were added to the plate wells at a density of 50,000 cells/mL in a total volume of 100 μL and adhered for 1 h at 37° C. For adhesion assays wells were washed several times with adhesion media and remaining cells lysed and radioactivity determined as described [M. K. Chelberg et al., J. Cell Biol. 111, 261 (1990)]. For spreading assays wells were fixed and stained using DiffQuik reagents (Baxter) and photographed with a Nikon MF-15 camera mounted on a Nikon Diaphot inverted microscope at 200× magnification. Cell spreading was quantitated by an Optomax System IV image analyzer equipped with a Hitachi Monitor. The efficiency of peptide adsorption to the Immulon plates was determined as described [M. K. Chelberg et al., J. Cell Biol. 111, 261 (1990)] using ^3 H- or ^125 I-labeled peptide.

[2] = CD thermal transition (triple-helix melting), molar ellipticity at 225 nm; type: physicochemical; conditions: [θ] at 225 nm; for Tm (triple-helical melt): 15-85 °C, 1-5% aqueous HOAc, pH 2.4
Procedure: Edman degradation sequence analysis was performed on an Applied Biosystems 477A Protein Sequencer/120A Analyzer for both solid-phase and "embedded" (non-covalent) sequencing as described by C. G. Fields et al., Anal. Biochem. 203, 245 (1992) and C. G. Fields et al., Peptide Res. 6, 39 (1993), which are incorporated herein by reference. Fulvene-piperidine concentrations (301 nm) and scanning UV spectra (200-320 nm) were determined with a BECKMAN DU-70 Spectrophotometer. Amino acid analyses were performed on a BECKMAN 6300 Analyzer with a sulfated polystyrene cation-exchange column (0.4 cm×25 cm). Peptides were hydrolyzed with 6N aqueous HCl at 110° C. for 18-48 h. Electrospray mass spectrometric (ES-MS) methods have been described by C. G. Fields et al., Peptide Res. 6, 39 (1993), which is incorporated herein by reference. Fast atom bombardment (FAB) MS was performed on a VG 7070E-HF with a glycerol matrix and laser desorption time-of-flight (LD-TOF) MS with both a breadboard and prototype matrix-assisted TOF mass spectrometer from Millipore Corporation (Milford, Mass.) with a sinapinic acid matrix [saturated solution of 10 mg/mL sinapinic acid dissolved in acetonitrile-H2 O (1:3) containing 0.1% TFA]. THPs were ^3 H-labeled by reductive methylation [N. Jentoft et al., J. Biol. Chem. 254, 4359 (1979)] with NaCNBH3 and [^3 H]formaldehyde, desalted over a Sephadex G-50 column (50×1.5 cm) in PBS, pH 7.4, and analyzed by size-exclusion chromatography (SEC). CD spectroscopy was performed on a Jasco 710 spectropolarimeter using a 100 or 200 μL, 0.1 mm cell. The THP concentrations (determined spectrophotometrically) in 1-5% aqueous HOAc, pH 2.4 were [THP-1]=0.16 mM, [THP-2]=0.084 mM, [THP-3]=0.068 mM, and [THP-4]=0.015 mM. Spectra were recorded by accumulating 5 scans at 0.5 nm intervals (response of 1 sec). Thermal transitions were examined by measuring the molar ellipticity ([θ]) at 225 nm from 15°-85° C.

[3] = test system: K1735M4 tumor cell; test: Melanoma cell adhesion to peptide-coated Immulon plates; type: cell-based, mouse; conditions: for pEC50: coated peptide 0.1-300 μM, cells adhered 1 h at 37 °C, one mole = three peptide chains, read-out: Half maximal melanoma cell adhesion (peptide concentration)
Procedure: as §1

Substance	cell areas averaged (cell spreading) [1] [mm^2 /μM peptide]	Tm (triple-helical melt) [2] [°C]	pEC50 [3]	Cell spreading, comparison in words ([1]; THP-2 versus SSP and GPP*)	midpoint of low temperature transition (aggregation) ([2]; 5% aqueous HOAc, pH 2.4, shown by SEC to be aggregation) [°C]	increase in melanoma cell adhesion activity compared with the α1(IV) 1263-1277 sequence alone ([3]; THP-2 versus SSP) [fold]
(Gly-Pro-Hyp)8 [THP-3]	0.017	42.5	< 4.00			
(Gly-Pro-Hyp)8 -Gly-Glu-Phe-Tyr-Phe-Asp-Leu-Arg-Leu-Lys-Gly-Asp-Lys [THP-1]		53.0				
(Gly-Pro-Hyp)8 -Gly-Val-Lys-Gly-Asp-Lys-Gly-Asn-Pro-Gly-Trp-Pro-Gly-Ala-Pro [THP-2]	0.048	58.5	5.95	more extensive	23.5	100
(Gly-Pro-Hyp)3 -Gly-Val-Lys-Gly-Asp-Lys-Gly-Asn-Pro-Gly-Trp-Pro-Gly-Ala-Pro [THP-4]		35.0				
